Source: publication PMC13252604, “First Generation Proteolysis Targeting Chimeras (PROTACs) for the Treatment of Progeria” (Advanced Science, 2026)

Test system: HGADFN167 Lmna^G608G/G608G fibroblasts
Assay: Cell cycle analysis by flow cytometry
Type: cell-based, human
Conditions: HGADFN167, 5 µM, 20 days
Description: Supporting Figure S5. Cell cycle analysis histogram. Flow cytometry analysis of DNA content showing cell cycle distribution with peaks corresponding to G0/G1 (labeled as M1) and G2/M phases, and an intermediate region representing S phase (S/G2/M are labeled as M2). Human progeroid LmnaG608G/G608G fibroblasts (HGADFN167 cells, from The Progeria Research Foundation) were incubated with 5 μM of compound 2 for 20 days and analyzed for DNA content by flow cytometry in a FACSCalibur Flow cytometer (Becton Dickinson). Images shown correspond to one representative analysis and bar graph represents mean±sem of 2 independent experiments performed in duplicate.
*p<0.05 vs HGADFN167 cells, one-way ANOVA. […]
Cells were harvested by trypsin, centrifuged and washed with PBS. Cells pellets were added with 70% (vol/vol) ice-cold ethanol. […] The mixture was then allowed to incubate for 30min at 37 °C in the dark and samples were finally analysed by FACScalibur (Becton Dickinson) flow cytometer […]
Cells were incubated for 1 h in 1% OsO4 at room temperature and then thoroughly washed with milliQ water. […] The samples were analysed and examined in the transmission electron microscope JEM 1010 at 80 […]
Total RNA of HGPS fibroblasts (HGADFN167) and UCM-18142-treated HGPS fibroblasts were extracted for RNA sequencing. The RNA concentration and integrity were assessed using the Tape Station 4150 system (Agilent). […]

## CC1(C)Oc2cc3oc(=O)ccc3cc2C[C@@H]1OC(=O)CCCCCNc1cccc2c1C(=O)N(C1CCC(=O)NC1=O)C2=O (stereo partly shown) [compound 2]
  percentage of cells undergoing replication (phases S/G2/M): increase
